Assays:
[1] = system: expression of the luciferase saRNA; assay: In vivo bioluminescent imaging after intramuscular injection of LNP-formulated luciferase saRNA; conditions: 1 μg LNP-formulated luciferase saRNA intramuscularly, female SWISS mice
Method: (§1) Female SWISS mice (6 weeks old) were purchased from Janvier Laboratories (Paris, France) and kept in individually ventilated cages with access to food and water ad libitum. Mice were anesthetized with isoflurane (Zoetis, Louvain-La-Neuve, Belgium) (5% for induction and 2% for maintenance) and intramuscularly injected with a total of 1 μg in 100 μL Tris-HCL (50 μL per leg) LNP-formulated luciferase saRNA (for each group n=7). The expression of the luciferase induced bioluminescence was measured via non-invasive In vivo bioluminescent imaging (In vivo Imaging System (IVIS) Lumina III, Perkin Elmer, Waltham, Massachusetts, USA), 10 minutes after subcutaneous injection of […] of D-luciferin (GoldBio, Saint Louis, Missouri, USA, #LUCK-1G) were measured in day 0 (before injection), day 1, day 3, day 5, day 7, day 10, day 15 and day 20.

[2] = Weight evolution of the animals following administration of LNPs; type: in vivo; conditions: female SWISS mice
Method: as §1

[3] = Day 1, 1 μg LNP-formulated saRNA intramuscularly
[4] = Day 3, 1 μg LNP-formulated saRNA intramuscularly
[5] = Day 5, 1 μg LNP-formulated saRNA intramuscularly
[6] = Day 7, 1 μg LNP-formulated saRNA intramuscularly
[7] = Day 10, 1 μg LNP-formulated saRNA intramuscularly
[8] = Day 15, 1 μg LNP-formulated saRNA intramuscularly
[9] = Day 20, 1 μg LNP-formulated saRNA intramuscularly

SMILES | Bioluminescence expression of LNPs ([1]; Day 1) | Bioluminescence expression of LNPs ([1]; Day 3) | Bioluminescence expression of LNPs ([1]; Day 5) | Bioluminescence expression of LNPs ([1]; Day 7) | Bioluminescence expression of LNPs ([1]; Day 10) | Bioluminescence expression of LNPs ([1]; Day 15) | Bioluminescence expression of LNPs ([1]; Day 20) | Weight ([2]; Day 0) [g] | Weight [2, 3] [g] | Weight [2, 4] [g] | Weight [2, 5] [g] | Weight [2, 6] [g] | Weight [2, 7] [g] | Weight [2, 8] [g] | Weight [2, 9] [g]
CCCCCCC(CCCC)C(=O)OCCCCCCN(CCCCCCOC(=O)C(CCCC)CCCCCC)CCN(CCCCCCOC(=O)C(CCCC)CCCCCC)CCN1CCN(CCN(CCCCCCOC(=O)C(CCCC)CCCCCC)CCCCCCOC(=O)C(CCCC)CCCCCC)CC1 (centres unmarked) [Compound 9-28, ((2-(4-(2-((2-(bis(6-((2-butyloctanoyl)oxy)hexyl)amino)ethyl) (6-((2-butyloctanoyl)oxy)hexyl)amino)ethyl)piperazin-1-yl)ethyl)azanediyl)bis(hexane-6,1-diyl)bis(2-butyloctanoate)] | 1.01E+08 | 8.67E+08 | 9.45E+08 | 5.65E+08 | 2.08E+06 | 8.15E+04 | 3.35E+04 | 28.36 | 27.19 | 29.44 | 29.17 | 29.37 | 29.39 | 31.43 | 32.46
CCCCCCCCC(CCCCCC)C(=O)OCCCCCCN(CCCCCCOC(=O)C(CCCCCC)CCCCCCCC)CCN(CCCCCCOC(=O)C(CCCCCC)CCCCCCCC)CCN1CCN(CCN(CCCCCCOC(=O)C(CCCCCC)CCCCCCCC)CCCCCCOC(=O)C(CCCCCC)CCCCCCCC)CC1 (centres unmarked) [Compound 9-31, ((2-(4-(2-((2-(bis(6-((2-hexyldecanoyl)oxy)hexyl)amino)ethyl) (6-((2-hexyldecanoyl)oxy)hexyl)amino)ethyl)piperazin-1-yl)ethyl)azanediyl)bis (hexane-6,1-diyl)bis(2-hexyldecanoate)] | 3.10E+07 | 2.74E+08 | 5.31E+08 | 2.16E+08 | 2.22E+06 | 2.46E+05 | 2.71E+04 | 27.70 | 26.17 | 28.46 | 27.66 | 28.29 | 28.27 | 29.76 | 30.90
CCCCCCC(CCCC)C(=O)NCCCCCCN(CCCCCCNC(=O)C(CCCC)CCCCCC)CCN1CCN(CCN(CCCCCCNC(=O)C(CCCC)CCCCCC)CCCCCCNC(=O)C(CCCC)CCCCCC)CC1 (centres unmarked) [Compound 9-41, N, N', N″, N″'-(((piperazine-1,4-diylbis(ethane-2,1-diyl))bis(azanetriyl))tetrakis(hexane-6,1-diyl))tetrakis(2-butyloctanamide)] | – | – | – | – | – | – | – | 29.19 | 29.19 | 29.43 | 29.21 | 30.44 | 31.06 | 31.26 | 31.77

— patent US20250236599A1, “LIPID NANOPARTICLES FOR OLIGONUCLEOTIDE DELIVERY” (ZIPHIUS NV, priority 2021, published 2025)
